Drawing on the METLIN SMRT retention time set (Domingo-Almenara et al. 2019), this text covers RP-LC retention time for 80 compounds.

The nature of this data set: gradient 5% acetonitrile 3 min, to 50% in 2 min, to 85% in 15 min, held 3 min, 100 µL/min. The following applies: column: Zorbax Extend-C18 2.1 x 50 mm; eluents: water / acetonitrile, 0.1% formic acid. An outline of the steps:
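Retention time was recorded from adduct peaks, which were picked computationally and each inspected manually. Pure standards ran in mixtures of ~100 molecules on HPLC coupled to a quadrupole time-of-flight mass spectrometer, in positive and negative ionization mode, through a Zorbax Extend-C18 column (2.1 × 50 mm, 1.8 μm) at 100 μL/min. Eluents were water and acetonitrile, each with 0.1% formic acid.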
The compound `Cc1ccn2cc(C(=O)NC3CCN(Cc4ccccc4)CC3)nc2c1` showed an RP-LC retention time of 804 s.

As for `CC(C)c1nc(CNC(=O)c2ccc(Cl)cc2)no1`, the RP-LC retention time was determined as 785 s.

In turn, `CCCn1c(C)cnc1C1CN(S(=O)(=O)c2ccc(Cl)c(C)c2)C1` came in with an RP-LC retention time of 732 s.

The compound `CC1CCCN(C(=O)C2c3ccccc3CC(=O)N2C)C1` (stereo not given) registered an RP-LC retention time of 748 s.

`Cc1nc(-c2cccc(NC(=O)c3cccc(F)c3)c2)cs1` came in with an RP-LC retention time of 856 s.

Regarding `Cc1nnc(SCC(=O)NCCc2ccccc2)s1`, the RP-LC retention time came to 650 s.

Regarding `CCOC(=O)c1c(C)oc2ncnc(NCCN3CCCc4ccccc43)c12`, the RP-LC retention time is 1350 s.

Regarding `CC(NC(=O)c1ccc2c(c1)CCCN2S(C)(=O)=O)c1ccccc1` (stereo not given), the RP-LC retention time stood at 862 s.

In turn, `Cc1ccc(C(C)NC(=O)C2CCN(c3nccnc3Oc3cccc(C)c3)CC2)cc1` (stereo not given) showed an RP-LC retention time of 1070 s.

`O=C(c1csc(Nc2ccc(OC(F)F)cc2)n1)N1CCN(c2ncccn2)CC1` yielded an RP-LC retention time of 774 s.

For the compound `CCNC(=O)Nc1ccc2c(c1)CN(S(=O)(=O)Cc1ccccc1)CCO2`, the RP-LC retention time is 754 s.

Compound `Cc1nccn1-c1cc(N2CCCCC2)nc2ccnn12` displayed an RP-LC retention time of 594 s.

In turn, `O=C(NCc1ccccc1)c1nc(Cn2c(=O)oc3ccc(Cl)cc32)no1` had an RP-LC retention time of 960 s.

In the case of `COc1ccc2c(c1)C1(CCN(C(=O)c3ccccc3)C1)C(=O)N2` (stereo not given), the RP-LC retention time was found to be 692 s.

In turn, `CCCS(=O)(=O)N1CCN(C(=O)c2cc(-c3ccc(OC)cc3)n[nH]2)CC1` yielded an RP-LC retention time of 745 s.

In the case of `CSc1ccc(NC(=O)CCNc2cnc3cnccn23)cc1`, the RP-LC retention time came to 619 s.

`CN1CCN(CCNC(=O)C2CCc3sc(C(=O)N4CCCC4)cc3C2)CC1` (stereo not given) had an RP-LC retention time of 569 s.

In turn, `Cc1ccc(N2CCC(NC(=O)c3cccc(C#N)c3)C2=O)cc1C` (stereo not given) had an RP-LC retention time of 847 s.

`CCC(=O)Nc1ccc(C2(C(=O)NCCC(C)C)CCCCC2)cc1` showed an RP-LC retention time of 936 s.

On to `Cc1ccc(OCC(=O)N2CCN(c3nc(CN4CCOCC4)cs3)CC2)cc1`, for which the RP-LC retention time turned out to be 640 s.

Take `COc1ccc(OC)c(Nc2c(-c3ccc(Br)cc3)nc3cnccn23)c1`: the RP-LC retention time was determined as 1000 s.

With `O=C(CCCN1CCN(Cc2ccc(F)cc2)C(=O)C1=O)NCCc1ccc(Cl)cc1`, the RP-LC retention time stood at 733 s.

As for `CCc1ccc(CNC(=O)CC2CCN(C(=O)c3[nH]c(C)c(C(=O)OC)c3C)CC2)cc1`, the RP-LC retention time was 795 s.

`CCCCNC(=O)Cn1nc2c3cc(-c4ccc(F)cc4)nn3ccn2c1=O` had an RP-LC retention time of 812 s.

On to `CCC(=O)N1CCc2cc(C(=O)NCC3CCCO3)ccc21` (stereo not given), for which the RP-LC retention time stood at 642 s.

`CC(C)(C)NC(=O)N1CCCCC1c1nncn1-c1ccccc1` (stereo not given): the RP-LC retention time was 712 s.

On to `Cc1ccc(-c2ncc3c(=O)n(Cc4ccc(F)cc4)c(=O)n(C)c3n2)cc1`, for which the RP-LC retention time turned out to be 1260 s.

As for `O=C(Cn1c(=O)c(CCC(=O)NC2CC2)nc2ccccc21)Nc1cccc(Br)c1`, the RP-LC retention time stood at 781 s.

Turning to `O=C(c1sc2ccccc2c1Cl)N1CCN(c2ccccn2)CC1`, the RP-LC retention time is 678 s.

For `CCc1cc(C(=O)Nc2ccc(F)c(C)c2)nc2ccnn12`, the RP-LC retention time came out at 1180 s.

Turning to `CCOC(=O)c1c(S(=O)(=O)N2CCC(C(=O)NCc3ccc(C)cc3)CC2)c(C)n(CC)c1C`, the RP-LC retention time is 895 s.

`COc1cc(NC(=O)C2CCCN(c3nc(C)nc4oc(C)c(C)c34)C2)cc(OC)c1` (stereo not given) came in with an RP-LC retention time of 915 s.

Compound `CC(=O)c1cccc(NC(=O)Cc2ccc3ccccc3c2)c1` returned an RP-LC retention time of 858 s.

`CCOc1ccc(-c2nc(C3CC(=O)N(c4ccc(C)cc4)C3)no2)cc1` (stereo not given): the RP-LC retention time was 1070 s.

Take `COc1ccc(-c2nsc(SCC(=O)N3CCCCCC3)n2)cc1`: the RP-LC retention time was determined as 846 s.

Compound `c1ccc(-c2nc(C3CC3)no2)c(OC2CN(Cc3ccncc3)C2)c1` registered an RP-LC retention time of 611 s.

The compound `CCC(Sc1nnc2n1CCN2c1ccc(OC)cc1)C(=O)OC` (stereo not given) showed an RP-LC retention time of 735 s.

In turn, `CC(=O)N(CCC1(C(C)C)CCOC(C)(C)C1)Cc1ccccc1` (stereo not given) showed an RP-LC retention time of 1000 s.

`Cc1ccc2c(c1)OCC(=O)N2Cc1nc(-c2ccccc2)no1` came in with an RP-LC retention time of 1040 s.

In the case of `Cc1c(F)cccc1NC(=O)N1CCCC(Cn2cnc3cccnc32)C1` (stereo not given), the RP-LC retention time was determined as 709 s.

Compound `Cc1cc([N+](=O)[O-])ccc1NC(=O)c1ccc(-n2cnnn2)cc1` came in with an RP-LC retention time of 803 s.

As to `COc1ccc(C(=O)NC2CCN(c3cc(-c4ccc(Cl)cc4)[nH]n3)C2)cc1` (stereo not given), the RP-LC retention time amounted to 776 s.

The compound `Cc1ccc(-n2nc(N3CCN(C(=O)Nc4ccc(F)cc4)CC3)ccc2=O)cc1` yielded an RP-LC retention time of 803 s.

Take `CCC(=O)N1c2ccc(S(=O)(=O)CCC(=O)NC3CCN(Cc4ccccc4)CC3)cc2CC1C` (stereo not given): the RP-LC retention time was determined as 640 s.

Take `COc1cccc(S(=O)(=O)N2CCc3c(c(-c4nnc(-c5ccccc5)o4)nn3C)C2)c1`: the RP-LC retention time amounted to 933 s.

As to `O=C(NCc1ccncc1)C1CCN(C(=O)c2ncn3c2COC(c2ccc(Cl)cc2)C3)CC1` (stereo not given), the RP-LC retention time is 645 s.

Consider `O=C(CN1C(=O)CC(c2ccccc2)S(=O)(=O)c2ccccc21)Nc1ccc(F)cc1F` (stereo not given), for which the RP-LC retention time worked out at 906 s.

On to `Cc1cc(-c2nnc(C3CC3)o2)c(C)n1CC(=O)NCc1ccc(Cl)cc1`, for which the RP-LC retention time turned out to be 850 s.

Turning to `CN(C)CCN1C(=O)c2cccc3cc(N)cc(c23)C1=O`, the RP-LC retention time was 626 s.

The compound `COc1ccc(OC)c(-c2cn3ccn(-c4cccc(Cl)c4)c(=O)c3n2)c1` came in with an RP-LC retention time of 887 s.

In turn, `CCc1nc(-c2csc(S(=O)(=O)N3CCC(C(=O)NC4CCCC4)CC3)c2)no1` gave an RP-LC retention time of 880 s.

Take `CCCC(=O)Nc1ccc2nc(N3CCN(CC(=O)NCCOC)CC3)cc(C(=O)O)c2c1`: the RP-LC retention time was 839 s.

The compound `COc1ccc(CN2CC3(CCN(S(=O)(=O)c4c(C)nn(C)c4C)CC3)C2=O)cc1` yielded an RP-LC retention time of 761 s.

`COc1ccc(-c2noc(C3(NC(=O)c4cccc(Cl)c4)CCCCC3)n2)cc1`: the RP-LC retention time was found to be 1250 s.

On to `Cn1cc(OCc2ccccc2)c(=O)cc1C(=O)N1CCN(c2ccccn2)CC1`, for which the RP-LC retention time is 538 s.

In the case of `CCOc1ccccc1-c1nc(CN(c2ccccc2)S(=O)(=O)c2cccs2)c(C)o1`, the RP-LC retention time was determined as 1160 s.

`O=C(Nc1cc(Cl)cc(Cl)c1)N1CC(Cc2nc(-c3cnccn3)no2)C1` showed an RP-LC retention time of 838 s.

For `CN(CC1CCOC1)C(=O)Cc1ccc(Cl)cc1` (stereo not given), the RP-LC retention time is 741 s.

In turn, `COc1ccc(-c2noc(C3CCCN3C(=O)Nc3ccccc3OC)n2)cc1` (stereo not given) gave an RP-LC retention time of 826 s.

As to `Cn1c(=O)c2cc(C(=O)Nc3ccccc3)cnc2n(-c2ccc(F)cc2)c1=O`, the RP-LC retention time worked out at 885 s.

Turning to `Cc1ccc(NC(=O)Nc2ccc3nnc(C)n3c2)cc1C`, the RP-LC retention time worked out at 719 s.

Compound `Cc1nn(C(C)C(=O)NCCCOC(C)C)c(=O)c2nn(-c3ccccc3)c(C)c12` (stereo not given) gave an RP-LC retention time of 771 s.

In turn, `CCc1noc(-c2ccc(-n3cnc(C(=O)NC(C)c4ccc(F)cc4)c3)nc2)n1` (stereo not given) displayed an RP-LC retention time of 1000 s.

`CCC(=O)NCc1csc(C2CCCN(C(=O)CC(C)(C)C)C2)n1` (stereo not given) returned an RP-LC retention time of 703 s.

`Cc1ccc(CC(=O)NC2CCN(c3nnc4ccc(C(F)(F)F)cn34)CC2)cc1` displayed an RP-LC retention time of 815 s.

In the case of `Cc1ccc(C)c(NC(=O)NCC(c2cccnc2)c2cn(C)c3ccccc23)c1` (stereo not given), the RP-LC retention time came to 733 s.

For the compound `Cc1ccc(CNC(=O)c2ccc(CN3CCN(C(C)C)C(=O)C3=O)cc2)cc1C`, the RP-LC retention time stood at 763 s.

`O=C(NCc1cccc(F)c1)C1CCN(c2nnc3ccc(Cl)cn23)CC1` returned an RP-LC retention time of 710 s.

`CCOC(=O)C(NC(C)=O)(C(=O)OCC)C(C)c1c[nH]c2ccccc12` (stereo not given) gave an RP-LC retention time of 847 s.

`Oc1ccc(Cl)cc1C1CC(c2ccc(Cl)cc2)=NC2(CCN(Cc3ccccc3)CC2)N1` (stereo not given) had an RP-LC retention time of 791 s.

As for `Fc1ccc(-c2ccnc3nc(-c4ccccc4)nn23)cc1`, the RP-LC retention time came to 949 s.

Regarding `CC(NS(=O)(=O)c1ccc2c(c1)CCN2C(=O)N1CCCC1)C(=O)N1CCCCC1` (stereo not given), the RP-LC retention time was 720 s.

In turn, `Cc1cc2[nH]c(C(=O)Nc3ccc(F)c(C)c3)c(CN3CCOCC3)c2s1` registered an RP-LC retention time of 720 s.

For the compound `CN1CCO[C@@H](C(=O)NC2CC2)[C@@H]1c1ccccc1`, the RP-LC retention time is 562 s.

Turning to `CC1Oc2ccc(-c3csc(NC(=O)C(C)(C)C)n3)cc2NC1=O` (stereo not given), the RP-LC retention time amounted to 856 s.

As to `COc1ccc(S(=O)(=O)N2CC(=O)N(C3CCCC3)C3(CCCCC3)C2)cc1OC`, the RP-LC retention time was 1080 s.

Compound `CC(C)n1c(=O)sc2cc(S(=O)(=O)N3CCC(C(=O)N4CCc5ccccc54)CC3)ccc21` had an RP-LC retention time of 1020 s.

On to `CN1CCN(C(=O)C(=O)Nc2c3c(nn2-c2cccc(Cl)c2)CSC3)CC1`, for which the RP-LC retention time stood at 571 s.

As for `O=C(c1ccc(Br)cc1)N1CCc2nc(-c3ccccc3)ncc2C1`, the RP-LC retention time amounted to 1000 s.

The compound `COC(=O)c1cnc2nc(-c3ccccc3Cl)nn2c1C` yielded an RP-LC retention time of 860 s.
